Results taken from patent US12527794B2, “Compositions, formulations, and methods for hair treatment” (Oddity Labs, LLC, priority 2021, dated 2026).

These molecules were tested on human hair follicle dermal papilla cells (hFDPC) (assay: Human follicle dermal papilla cell (hFDPC) proliferation, cell viability assay). Conditions: hFDPCs supplemented with BIO, BMP-2 and FGFβ.
Type: cell-based
Protocol: The ability of a compound or salt of the present disclosure to increase proliferation of human hair follicle dermal papilla cells (hFDPC) was tested using a cell viability assay, such as the Promega CellTiter-Glo® Luminescent Cell Viability Assay, MTT cell proliferation assay (ATCC® 30-1010K) or cell counting. […] In Table 8, A represents less than 20% of increased proliferation of hFDPCs, B represents 20-40%, and C represents larger than 40% of increased proliferation of hFDPCs. For this assay, hFDPCs were cultured on tissue culture-treated plastic and supplemented with 6-bromoindirubin-39-Oxime (BIO), recombinant bone morphogenetic protein-2 (BMP-2), and basic fibroblast growth factor (FGFβ), whose combination was previously found to preserve in situ dermal papilla gene signatures.
With `COc1ccc(/C=C2\C(=O)NC(=O)N(C)C2=O)c(OC)c1` [Compound I-11, 2,4,6(1H,3H,5H)-Pyrimidinetrione, 5-[(2,4-dimethoxyphenyl)methylene]-1-methyl-, (5E)-] the “Percent Increase Proliferation of hFDPCs (%)” value was “A (A represents less than 20% of increased proliferation of hFDPCs)”.
With `CC(C)(C)Nc1nnc(SCc2cc(=O)oc3cc(O)ccc23)s1` [IV-1, 2H-1-Benzopyran-2-one, 4-[[[5-[(1,1-dimethylethyl)amino]-1,3,4-thiadiazol-2-yl]thio]methyl]-7-hydroxy-] the “Percent Increase Proliferation of hFDPCs (%)” value was “B (B represents 20-40%)”.
In the case of `Cc1cccc(Cn2cnc(NC(=O)c3cc(-c4cccnc4)nc4ccc(C)cc34)n2)c1` [III-2, 4-Quinolinecarboxamide, 6-methyl-N-[1-[(3-methylphenyl)methyl]-1H-1,2,4-triazol-3-yl]-2-(3-pyridinyl)-], the “Percent Increase Proliferation of hFDPCs (%)” value is reported as “A (A represents less than 20% of increased proliferation of hFDPCs)”.
`O=C1CNCc2[nH]c3ccccc3c2N1c1ccccc1` [VII-10, 1,4-Diazepino[6,5-b] indol-2(1H)-one, 3,4,5,6-tetrahydro-1-phenyl-] was tested, and the “Percent Increase Proliferation of hFDPCs (%)” value was “B (B represents 20-40%)”.
For `C=CCc1cc(C=C2C(=O)NC(=S)NC2=O)cc(OCC)c1O` [Compound I-8, 4,6(1H,5H)-Pyrimidinedione, 5-[[3-ethoxy-4-hydroxy-5-(2-propen-1-yl)phenyl]methylene]dihydro-2-thioxo-], the “Percent Increase Proliferation of hFDPCs (%)” value was “B (B represents 20-40%)”.
With `C=CCc1cc(/C=C2\C(=O)NC(=S)N(C)C2=O)cc(OC)c1OCC` [Compound I-10, 4,6(1H,5H)-Pyrimidinedione, 5-[[4-ethoxy-3-methoxy-5-(2-propen-1-yl)phenyl]methylene]dihydro-1-methyl-2-thioxo-] the “Percent Increase Proliferation of hFDPCs (%)” value was “A (A represents less than 20% of increased proliferation of hFDPCs)”.
`C=CCc1cc(/C=C2\C(=O)NC(=O)N(c3ccc(C)c(C)c3)C2=O)cc(OC)c1O` [Compound I-4, 2,4,6(1H,3H,5H)-Pyrimidinetrione, 1-(3,4-dimethylphenyl)-5-[[4-hydroxy-3-methoxy-5-(2-propen-1-yl)phenyl]methylene]] was tested, and the “Percent Increase Proliferation of hFDPCs (%)” value was “A (A represents less than 20% of increased proliferation of hFDPCs)”.
For `C=CCN1C(=O)NC(=O)/C(=C\c2ccc(OC)cc2OC)C1=O` [Compound I-6, 2,4,6(1H,3H,5H)-Pyrimidinetrione, 5-[(2,4-dimethoxyphenyl)methylene]-1-(2-propen-1-yl)-], the “Percent Increase Proliferation of hFDPCs (%)” value was “A (A represents less than 20% of increased proliferation of hFDPCs)”.
For `O=C(O)CC1SC(NN=Cc2ccc(OS(=O)(=O)c3ccc([N+](=O)[O-])cc3)cc2)=NC1=O` (stereo not drawn) [VI-6, 5-Thiazoleacetic acid, 4,5-dihydro-2-[2-[[4-[[(4-nitrophenyl)sulfonyl]oxy]phenyl]methylene] hydrazinyl]-4-oxo-], the “Percent Increase Proliferation of hFDPCs (%)” value was “A (A represents less than 20% of increased proliferation of hFDPCs)”.
In the case of `C=CCc1cc(C=C2C(=O)NC(=S)NC2=O)cc(OC)c1O` [Compound I-9, 4,6(1H,5H)-Pyrimidinedione, dihydro-5-[[4-hydroxy-3-methoxy-5-(2-propen-1-yl)phenyl]methylene]-2-thioxo-], the “Percent Increase Proliferation of hFDPCs (%)” value is reported as “B (B represents 20-40%)”.
In the case of `CCCCN1CCc2cc(/C=C3\C(=O)NC(=O)N(C)C3=O)ccc21` [Compound I-12, 2,4,6(1H,3H,5H)-Pyrimidinetrione, 5-[(1-butyl-2,3-dihydro-1H-indol-5-yl)methylene]-1-methyl-], the “Percent Increase Proliferation of hFDPCs (%)” value is reported as “B (B represents 20-40%)”.
For `C=CCOc1ccc(/C=C2/C(=O)NC(=O)N(CC=C)C2=O)cc1OC` [Compound I-7, 2,4,6(1H,3H,5H)-Pyrimidinetrione, 5-[[3-methoxy-4-(2-propen-1-yloxy)phenyl]methylene]-1-(2-propen-1-yl)-], the “Percent Increase Proliferation of hFDPCs (%)” value was “A (A represents less than 20% of increased proliferation of hFDPCs)”.
`C=CCc1cc(/C=C2\C(=O)NC(=O)N(C)C2=O)cc(OC)c1O` [Compound I-16, 2,4,6(1H,3H,5H)-Pyrimidinetrione, 5-[[4-hydroxy-3-methoxy-5-(2-propen-1-yl)phenyl]methylene]-1-methyl-] was tested, and the “Percent Increase Proliferation of hFDPCs (%)” value was “A (A represents less than 20% of increased proliferation of hFDPCs)”.
In the case of `COc1ccc(CC(=O)Nc2sc3c(c2C(=O)Nc2cccc([N+](=O)[O-])c2)CCC(C)C3)cc1` (stereo not drawn) [VII-22, Benzo[b]thiophene-3-carboxamide, 4,5,6,7-tetrahydro-2-[[2-(4-methoxyphenyl)acetyl]amino]-6-methyl-N-(3-nitrophenyl)-], the “Percent Increase Proliferation of hFDPCs (%)” value is reported as “A (A represents less than 20% of increased proliferation of hFDPCs)”.
For `CCC(C)Cc1c(C)sc2[nH]c(SCc3cc(=O)oc4cc(O)ccc34)nc(=O)c12` (stereo not drawn) [IV-4, Thieno[2,3-d]pyrimidin-4(1H)-one, 2-[[(7-hydroxy-2-oxo-2H-1-benzopyran-4-yl)methyl]thio]-6-methyl-5-(2-methylbutyl)-], the “Percent Increase Proliferation of hFDPCs (%)” value was “A (A represents less than 20% of increased proliferation of hFDPCs)”.
In the case of `C=CCc1cc(/C=C2\C(=O)NC(=O)N(c3ccc(C(C)C)cc3)C2=O)cc(OC)c1O` [Compound I-1, 2,4,6(1H,3H,5H)-Pyrimidinetrione, 5-[[4-hydroxy-3-methoxy-5-(2-propen-1-yl)phenyl]methylene]-1-[4-(1-methylethyl)phenyl]-], the “Percent Increase Proliferation of hFDPCs (%)” value is reported as “A (A represents less than 20% of increased proliferation of hFDPCs)”.
In the case of `COc1cc(/C=C2\C(=O)NC(=O)N(Cc3ccccc3)C2=O)cc(OC)c1O` [Compound I-5, 2,4,6(1H,3H,5H)-Pyrimidinetrione, 5-[(4-hydroxy-3,5-dimethoxyphenyl)methylene]-1-(phenylmethyl)-], the “Percent Increase Proliferation of hFDPCs (%)” value is reported as “B (B represents 20-40%)”.
For `CN1C(=O)NC(=O)/C(=C\c2cccc(OCC(=O)O)c2)C1=O` [Compound I-14, Acetic acid, 2-[3-[(tetrahydro-1-methyl-2,4,6-trioxo-5(2H)-pyrimidinylidene)methyl]phenoxy]-], the “Percent Increase Proliferation of hFDPCs (%)” value was “A (A represents less than 20% of increased proliferation of hFDPCs)”.
`C=CCc1cc(/C=C2\C(=O)NC(=O)N(c3cc(C)cc(C)c3)C2=O)cc(OC)c1O` [Compound I-3, 2,4,6(1H,3H,5H)-Pyrimidinetrione, 1-(3,5-dimethylphenyl)-5-[[4-hydroxy-3-methoxy-5-(2-propen-1-yl)phenyl]methylene]-] was tested, and the “Percent Increase Proliferation of hFDPCs (%)” value was “A (A represents less than 20% of increased proliferation of hFDPCs)”.
For `CN1C(=O)NC(=O)/C(=C/c2cnc(N(C)C)nc2)C1=O` [Compound I-13, 2,4,6(1H,3H,5H)-Pyrimidinetrione, 5-[[2-(dimethylamino)-5-pyrimidinyl]methylene]-1-methyl-], the “Percent Increase Proliferation of hFDPCs (%)” value was “A (A represents less than 20% of increased proliferation of hFDPCs)”.
In the case of `CCOCCc1nnc(NC(=O)c2cc(-c3ccccc3)nc3ccccc23)s1` [III-4, 4-Quinolinecarboxamide, N-[5-(2-ethoxyethyl)-1,3,4-thiadiazol-2-yl]-2-phenyl-], the “Percent Increase Proliferation of hFDPCs (%)” value is reported as “B (B represents 20-40%)”.
